Test results published in patent publication EP0364581A1, “METHOD OF STERILIZING PLANT POLLEN” (VSESOJUZNY NAUCHNO-ISSLEDOVATELSKY INST. SELSKOKHOZYAISTV. …, priority 1988, dated 1989).
Where two headings read alike, the source gives them in different places.

Columns and labels:
Sonnenblume Linie VK-119 = assay: field test of chemical sterilisation of sunflower pollen; format: in vivo; details: Linie BK-119
Source text: (§1) Die gametozide Aktivität der erfindungsgemäßen Sterilisationsmittel war in Feldversuch in verschiedenen bodenklimatischen Zonen mit Teilstücken von 10 m^2 Größe in drei-- bis viermaliger Wiederholung nachgewiesen. Jedes Sterilisationsmittel wurde mindestens 5 Jahre lang geprüft.
(§2) Die Entwicklung der Perioden der Organogenese wird zytologisch überwacht. Die Behandlung von Pflanzen mit dem Sterilisationsmittel erfolgt am Anfang der fünften Periode der Organogenese nach Kupermann.
(§3) Zur Kontrolle der chemischen Sterilisation des Sonnenblumenpollens werden für jede Verbindung 45 behandelte Pflanzen jeder Wiederholung benutzt, wobei 15 Pflanzen zwecks Selbsbestäubung isoliert werden, Blutenkörbchen von 15 anderen Pflanzen mit einem Pollengemisch, gesammelt von 20 bis 25 behandelten isolierten Körbchen, bestäubt werden, und 15 Pflanzen für freie Bestäubung gelassen werden, damit das Ansetzen von Achänen mit dem Pollen der Vaterform kontrolliert werden kann.
(§4) Man beurteilt die Pollensterilität von Pflanzen der Sonnenblume nach der Pollenfertilität und -keimfahigkeit, nach den morphologischen Besonderheiten von Spermien und nach der Fähigkeit von Achänen zum Ansetzen bei der Bestäubung der behandelten isolierten Pflanzen mit dem Pollen der unbehandelten väterlischen Form. Die Läbensfähigkeit der Eizelle wird nach der Samenbildung bei behandelten Pflanzen bei freier Bestäubung der väterlichen Form bestimmt.
(§5) Pflanzen der Sonnenblume Sorte Peredovik werden in der V. Periode der Organogenese (nach Kupermann) mit einer 0,5%igen wäßrigen Emulsion von Phthalsäuredibutylester, Phthalsäurediäthylester, Kaliumsalz der 2-Methyl-3-zyklohexenkarbonsäu- re, Natriumsalz der 2-Methyl-3-zyklohexenkarbonsäure sowie mit einer 0,05%igen wäßrigen Emulsion von 2-Methyl-3-zyklo- hexenkarbonsäuremethylester behandelt. Die Emulsion enthält 0,01 Masse% Dimethylsulfoxid und 0,1 Masse% C12-C14-Kalziumalkylbenzolsulfonat. Die Sonnenblume Linie VK-119 werden mit einer 0,2%igen wäßrigen Emulsion von Phthalsäuredibutylester, 0,1%igen wäßrigen Emulsion von Phthalsäurediäthylester, Kaliumsalz der 2-Methyl-3-zyklohexenkarbonsäure, 1%igen wäßrigen Emulsion von Natriumsalz der. 2-Methyl-3-zyklohexen- karbonsäure und 0,01%igen wäßrigen Emulsion von 2-Methyl--3-zyklohexenkarbonsäuremethylester behandelt. Die Emulsion enthält 0,01 Masse% Dimethylformamid und 0,1 Masse% C12-C14--Kalziumalkylbenzolsulfonat.
(§6) Als Kontrolle in allen Fällen dienen Pflanzen, behandelt mit einem Verdünner ohne Sterilisationsmittel.

Sonnenblume Linie BK-373 = assay: as above; format: in vivo
Source text: as §1, §2, §3, §4
Die Sonnenblume Linie BK-373 werden mit einer 0,2%igen wäßrigen Emulsion von Phthalsäuredibutylester, 0,1%igen wäßrigen Emulsion von Kaliumsalz der 2-Methyl-3-zyklohexylkar- bonsäuremethylester und 0,2%igen wäßrigen Emulsion von Phthalsäurediäthylester behandelt. Die Emulsion enthält 0,01 Masse% Dodezylsulfat und 0,1 Masse% C12-C14-Kalziumalkylbenzolsulfonat.
as §6

[1] = system: Sonnenblume Sorte Peredovik; assay: as above; format: in vivo; details: V. Periode
Source text: as §1, §2, §3, §4
as §5, with “Periode der Organogenese (nach Kupermann) mit einer 0,5%igen wäßrigen Emulsion von Phthalsäuredibutylester, Phthalsäurediäthylester, Kaliumsalz der 2-Methyl-3-zyklohexenkarbonsäu- re, Natriumsalz der 2-Methyl-3-zyklohexenkarbonsäure sowie mit einer 0,05%igen wäßrigen Emulsion von 2-Methyl-3-zyklo- hexenkarbonsäuremethylester behandelt.” left out
as §6

[2] = acute toxicity in animals; design: species or system weiße Ratten; details: rat, in vivo
Source text: (§7) Alle erfindungsgemäßen Karbonsäurederivate, die als Sterilisationsmittel zur Verwendung kommen, waren auf die akute Toxizität im Tierversuch geprüft. Die Prüfergebnisse haben ergeben, daß die angegebenen Verbindungen von schwacher oder mittlerer Toxizität sind.

[3] = acute toxicity in animals; details: mouse, in vivo, po; weiße Mäuse; einmalige Einführung in den Magen
Source text: as §7

[4] = system: diploidem Roggen Sorte Belorusskaya 23; assay: field test of gametocidal activity (sterilisation of anthers); format: in vivo; details: V. und VI. Periode, 1%ige wäßrige Emulsion, 6 kg/ha; for Prozentsatz des Ansetzens der Körner bei freier Bestäubung: control = 100
Source text: as §1, §2
Mit dem Ahrenschieben verwirklicht man die Isolierung von Hauptähren und anderen Stockwerken in Pergamentbeuteln. Bei Weizen und Tritikale werden Einzelisolatoren verwendet. Bei Roggen schließt man je 1 Ähre von 5 bis 7 verschiedenen nebeneinander befindlichen Pflanzen in einen gemeinsamen Isolator ein. Bei Hirse wird jede Rispe getrennt isoliert. Der Sterilitätsprozentsatz (X) für Weizen, Roggen, Tritikale und Hirse wird nach der Formel [formula]
Samen von unbehandelten Kontrollpflanzen ermittelt.
Die Kornzahl in nicht isolierten Ähren von Kontrollpflanzen wird bedingt für 100% Ansetzen bei freier Bestäubung angenommen.
Um zuverlässige Angaben zu erhalten, verwendet man 20 bis 25 Isolatoren jeder Wiederholung für Weizen und Tritikale, 10 bis 15 Isolatoren jeder Wiederholung für Roggen und Hirse.
Pflanzen von diploidem Roggen Sorte Belorusskaya 23 werden in der V. und VI. Periode der Organogenese (nach Kupermann) mit einer 1%igen wäßrigen Emulsion von Phthalsäuredibutylester, Kaliumsalz der 2-Methyl-3-zyklohexenkarbonsäure behandelt. Die Emulsion enthält 0,01 Masse% Dodezylsulfat, und 0,1 Masse% C12-C14-Kalziumalkylbenzolsulfonat.
Der Verbrauch an Präparat beträgt 6 kg/ha. Als Kontrolle dienen Pflanzen, behandelt mit einem Verdünner ohne Sterilisationsmittel.

[5] = Präparat 0,01 Masse%, 0,06 kg/ha
[6] = Präparat 0,05 Masse%, 0,3 kg/ha

CCCCOC(=O)c1ccccc1C(=O)OCCCC [Beispiel 108, Phthalsäuredibutylester]
Ansetzen der Achänen bei freier Bestäubung (Sonnenblume Linie VK-119; Präparat 0,2 Masse%, 1,2 kg/ha): 83,5
Prozentsatz der Sterilität (Sonnenblume Linie VK-119; Präparat 0,2 Masse%, 1,2 kg/ha): 100,0%

CC1C=CCCC1C(=O)O (stereo not drawn) [Beispiel 110, Kaliumsalz der 2-Methyl-3-zyklohexenkarbonsäure]
Ansetzen der Achänen bei freier Bestäubung (Sonnenblume Linie VK-119; Präparat 0,1 Masse%, 0,6 kg/ha): 85,5
Prozentsatz der Sterilität (Sonnenblume Linie VK-119; Präparat 0,1 Masse%, 0,6 kg/ha): 100,0%

COC(=O)C1CCC=CC1C (stereo not drawn) [Beispiel 112, 2-Methyl--3-zyklohexenkarbonsäuremethylester]
Ansetzen der Achänen bei freier Bestäubung (Sonnenblume Linie VK-119; [5]): 85,0
Prozentsatz der Sterilität (Sonnenblume Linie VK-119; [5]): 100,0%

COC(=O)C1CCC=CC1C (stereo not drawn) [Beispiel 115, 2-Methyl--3-zyklohexenkarbonsäuremethylester]
Ansetzen der Achänen bei freier Bestäubung (Sonnenblume Linie BK-373; [5]): 65,7
Prozentsatz der Sterilität (Sonnenblume Linie BK-373; [5]): 100,0%

CC1C=CCCC1C(=O)[O-].[K+] (stereo not drawn) [Beispiel 114, Kaliumsalz der 2-Methyl-3-zyklohexenkarbonsäure]
Ansetzen der Achänen bei freier Bestäubung (Sonnenblume Linie BK-373; Präparat 0,1 Masse%, 0,6 kg/ha): 62,9
Prozentsatz der Sterilität (Sonnenblume Linie BK-373; Präparat 0,1 Masse%, 0,6 kg/ha): 100,0%

CC1C=CCCC1C(=O)O (stereo not drawn) [Beispiel 111, Natriumsalz der. 2-Methyl-3-zyklohexen-karbonsäure]
Ansetzen der Achänen bei freier Bestäubung (Sonnenblume Linie VK-119; Präparat 1,0 Masse%, 6,0 kg/ha): 85,0
Prozentsatz der Sterilität (Sonnenblume Linie VK-119; Präparat 1,0 Masse%, 6,0 kg/ha): 100,0%

COC(=O)C1CCC=CC1C (stereo not drawn) [Beispiel 107, 2-Methyl-3-zyklo-hexenkarbonsäuremethylester]
Ansetzen der Achänen bei freier Bestäubung [1, 6]: 83,8
Prozentsatz der Sterilität [1, 6]: 100,0%

CCCCOC(=O)c1ccccc1C(=O)OCCCC [Beispiel 103, Phthalsäuredibutylester]
Ansetzen der Achänen bei freier Bestäubung ([1]; Präparat 1,0 Masse%, 6,0 kg/ha): 82,3
Prozentsatz der Sterilität ([1]; Präparat 1,0 Masse%, 6,0 kg/ha): 100,0%

CCOC(=O)c1ccccc1C(=O)OCC [Beispiel 109, Phthalsäurediäthylester]
Ansetzen der Achänen bei freier Bestäubung (Sonnenblume Linie VK-119; Präparat 0,1 Masse%, 0,6 kg/ha): 82,5
Prozentsatz der Sterilität (Sonnenblume Linie VK-119; Präparat 0,1 Masse%, 0,6 kg/ha): 100,0%

CCCCOC(=O)c1ccccc1C(=O)OCCCC [Phthalsäuredibutylester]
LD50 ([2]; weiße Ratten, einmalige Einführung in den Magen (route printed for Phthalsäuredibutylester), read-out: LD50): 6670 mg/kg
LD50 [3]: 2840 mg/kg

CC1C=CCCC1C(=O)O (stereo not drawn) [Beispiel 75, Kaliumsalz der 2-Methyl-3-zyklohexenkarbonsäure]
Kornzahl der Ähre bei freier Bestäubung [4]: 43,0
Kornzahl der Ähre im Isolator [4]: 0,0
Prozentsatz der Sterilität [4]: 100,0%
Prozentsatz des Ansetzens der Körner bei freier Bestäubung [4]: 95,0%

CCOC(=O)c1ccccc1C(=O)OCC [Beispiel 116, Phthalsäurediäthylester]
Ansetzen der Achänen bei freier Bestäubung (Sonnenblume Linie BK-373; Präparat 0,2 Masse%, 1,2 kg/ha): 64,6
Prozentsatz der Sterilität (Sonnenblume Linie BK-373; Präparat 0,2 Masse%, 1,2 kg/ha): 100,0%

CC1C=CCCC1C(=O)O (stereo not drawn) [Beispiel 105, Kaliumsalz der 2-Methyl-3-zyklohexenkarbonsäu-re]
Ansetzen der Achänen bei freier Bestäubung ([1]; Präparat 1,0 Masse%, 6,0 kg/ha): 85,0
Prozentsatz der Sterilität ([1]; Präparat 1,0 Masse%, 6,0 kg/ha): 100,0%

CC1C=CCCC1C(=O)O (stereo not drawn) [Beispiel 106, Natriumsalz der 2-Methyl-3-zyklohexenkarbonsäure]
Ansetzen der Achänen bei freier Bestäubung ([1]; Präparat 1,0 Masse%, 6,0 kg/ha): 84,1
Prozentsatz der Sterilität ([1]; Präparat 1,0 Masse%, 6,0 kg/ha): 100,0%

CCCCOC(=O)c1ccccc1C(=O)OCCCC [Beispiel 113, Phthalsäuredibutylester]
Ansetzen der Achänen bei freier Bestäubung (Sonnenblume Linie BK-373; Präparat 0,2 Masse%, 1,2 kg/ha): 61,5
Prozentsatz der Sterilität (Sonnenblume Linie BK-373; Präparat 0,2 Masse%, 1,2 kg/ha): 100,0%

CC1C=CCCC1C(=O)O (stereo not drawn) [Kaliumsalz der 2-Methyl-3-zyklohexenkarbonsäure]
LD50 [2]: 7660 mg/kg

CCOC(=O)c1ccccc1C(=O)OCC [Beispiel 104, Phthalsäurediäthylester]
Ansetzen der Achänen bei freier Bestäubung ([1]; Präparat 1,0 Masse%, 6,0 kg/ha): 80,0
Prozentsatz der Sterilität ([1]; Präparat 1,0 Masse%, 6,0 kg/ha): 100,0%

CCCCOC(=O)c1ccccc1C(=O)OCCCC [Beispiel 74, Phthalsäuredibutylester]
Kornzahl der Ähre bei freier Bestäubung [4]: 42,5
Kornzahl der Ähre im Isolator [4]: 0,0
Prozentsatz der Sterilität [4]: 100,0%
Prozentsatz des Ansetzens der Körner bei freier Bestäubung [4]: 94,9%
